Reference: patent US20210308138A1, “TISSUE TRANSGLUTAMINASE MODULATORS FOR MEDICINAL USE” (Aarhus Universitet, priority 2018, published 2021)

How the values were obtained:
[1] = test system: small mesenteric arteries; assay: Acetylcholine-induced endothelium-dependent relaxation of phenylephrine pre-contracted small mesenteric arteries, isometric myograph (ex vivo); parameters: species or system Male Wistar rats; conditions: 1 hour incubation; Z-DON 4·10^−5, Boc-DON 10^−5, VA-5 10^−5 mol/L; 12-14 weeks old rats
Protocol: Small mesenteric arteries were mounted in microvascular myographs (Danish Myotechnology, Aarhus, Denmark) using two 40 μm wires and stretched to their optimal diameter for isometric tension recordings, which corresponded to 0.9 times the estimated internal diameter at 100 mmHg of transmural pressure. PSS solution in the myograph bath was heated to 37° C. and continuously bubbled with 5% CO2 in air to maintain pH (7.4). The vessel viability was tested at the beginning of each experiment by measuring the vasoconstrictor responses to a solution with a high K^+ concentration (KPSS), equivalent to PSS except that NaCl was exchanged for KCl on an equimolar basis, giving a final concentration of 123.7 mmol/L K^+ and the presence of endothelium was confirmed by addition of acetylcholine (ACh) (10^−5) after pre-constriction with noradrenaline (5·10^−6 mol/L), arteries with less than 75% of relaxation were discarded.
Mesenteric arteries from rats of different age were incubated with (10^−6 mol/L) LDN-27219 or vehicle for 25 minutes and pre-contracted with phenylephrine (Phe) (10^−5 mol/L). Then cumulative addition of acetylcholine (ACh) caused the relaxation of the mesenteric arteries and the concentration-response curves were constructed.
Rats of 5-7 weeks age, about 12 weeks age, and more than 30 weeks of age were tested respectively. The results of the isometric tension studies are shown in FIGS. 1, A), B) and C) respectively, each representing a different their age group.
(§1) The small mesenteric arteries were prepared in the same way is described in example 1.

[2] = test system: vascular smooth muscle cells (VSMCs) potassium currents; assay: Whole-cell patch-clamp of K+ outward currents in isolated vascular smooth muscle cells; type: cell-based, rat; conditions: LDN-27219 3·10^−5 mol/L 12 min; VA-5 5·10^−5 mol/L one hour incubation
Protocol: For isolation of VSMCs, rat mesenteric arteries were dissected as previously described, opened longitudinally and stored in ice-cold dissociation solution containing (mmol/L): 119 NaCl, 4.7 KCl, 1.18 KH2PO4, 1.17 MgSO4, 24.9 NaHCO3, 0.027 EDTA, and 11 glucose, pH=7.4. Arteries were then equilibrated during 10 min in a dissociation solution with bovine albumin serum (BSA; 1 mg/mL) at 37° C. and then exposed to the same solution supplemented with papain (0.5 mg/mL; Worthington Biochemical Corp., Lakewood, N.J., USA) and dithiothreitol (DTT; 1 mg/mL) at 37° C. for 8 min. Arteries were then washed in ice-cold dissociation solution and moved to dissociation solution containing BSA (1 mg/mL) and collagenase (0.7 mg/mL type F and 0.4 mg/mL type H; Worthington Biochemical Corp.) at 37° C. for 3 min. […]
Membrane currents were recorded under the whole-cell configuration of the patch-clamp technique using an Axon Multiclamp 700A amplifier (Axon instruments, Molecular Devices, CA, USA). […] Current-voltage relations were determined using 600 ms voltage ramps from −100 to 160 mV and a holding potential (Vh) of −65 mV for SMCs.
Amplitudes of K^+-outward currents were measured in control conditions and 12 min after the addition of LDN-27219 (3·10^−5 mol/L) to the extracellular solution by a perfusion system.

Male Wistar rats = assay: Mean arterial pressure (MAP) in vivo measurement after intrajugular infusion; conditions: VA-5 single dose 1 mg/kg, intrajugular infusion during 3 minutes; adult and older rats
Protocol: For ‘in vivo’ experiments Wistar rats of different age were fasted 8 h before anesthesia with 35 mg/kg of S-ketamine and 50 mg/kg of pentobarbital sodium administered intraperitoneally.
Male Wistar rats with 12-14 and 30-35 weeks of age were anesthetized with s-ketamine (35 mg/kg) and pentobarbital (50 mg/kg) and placed on a heated blanket to maintain body temperature at 37° C. ECG needles were installed for electrocardiographic measurements and a solid state catheter (Millar Inc, Houston, USA) was introduced into the carotid artery to measure MAP. MAP and electrocardiographic data was continuously recorded on a computerized data acquisition system (PowerLab, ADInstruments). Adequate depth of anesthesia was checked periodically by the absence of the toe pinch withdrawal effect and ⅓ of the initial dose of anesthetics was administered intraperitoneally when needed (usually each 1½ h). Changes in MAP and electrocardiographic signal in response to intrajugular infusion during 3 minutes of different doses of LDN-27219 and the corresponding vehicle (PEG-400) were studied.
The Area Under the Curve (AUC) was calculated using Graphpad Prism 5.1 (GraphPad Software, San Diego, Calif., USA) for each response to the change in MAP that was collected during the experiments in example 3. The AUC gives information about the maximal response, and about the duration of the effect.
Rats of different age in these experiments were anesthetized, prepared and catheterized as described in Example 3.

[3] = test system: small mesenteric arteries; conditions: M. Engholm et al., British J. Pharm. (2016), 173, 839-855; cited from earlier work
purified human TG2 = biological target: T1, purified human TG2 (Homo sapiens, UniProt P21980); assay: Conformational shift assay by native polyacrylamide gel electrophoresis (native-PAGE); type: biochemical; conditions: TG2 2.5 uM; 1 mM LDN-27219, 1 mM GTPNa2, or 0.2 mM Z-DON with CaCl2
T1 construct: purchased Zedira (Darmstadt, Germany); host or cells: insect cells
T1 sequence (P21980 1-687): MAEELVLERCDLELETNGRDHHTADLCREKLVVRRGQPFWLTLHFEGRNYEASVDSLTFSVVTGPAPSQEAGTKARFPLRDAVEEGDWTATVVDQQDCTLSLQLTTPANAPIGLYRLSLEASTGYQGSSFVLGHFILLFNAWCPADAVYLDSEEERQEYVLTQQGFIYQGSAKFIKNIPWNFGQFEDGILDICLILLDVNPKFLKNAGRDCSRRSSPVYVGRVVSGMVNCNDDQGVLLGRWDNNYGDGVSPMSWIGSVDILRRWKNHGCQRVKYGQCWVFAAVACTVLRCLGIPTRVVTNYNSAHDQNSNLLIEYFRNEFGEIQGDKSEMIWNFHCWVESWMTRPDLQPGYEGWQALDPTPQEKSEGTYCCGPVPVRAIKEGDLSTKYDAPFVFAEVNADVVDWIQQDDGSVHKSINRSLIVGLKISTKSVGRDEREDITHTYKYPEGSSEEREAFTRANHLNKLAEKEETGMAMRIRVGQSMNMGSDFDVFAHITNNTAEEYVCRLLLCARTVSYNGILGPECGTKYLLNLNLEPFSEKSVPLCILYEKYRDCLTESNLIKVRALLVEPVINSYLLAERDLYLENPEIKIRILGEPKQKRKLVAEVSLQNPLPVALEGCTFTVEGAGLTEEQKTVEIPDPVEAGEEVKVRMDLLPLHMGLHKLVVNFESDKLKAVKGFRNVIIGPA
Protocol: For the conformational shift assay using native polyacrylamide gel electrophoresis (native-PAGE) purified and functional human TG2 protein produced in insect cells was obtained from Zedira (Darmstadt, Germany).
Native gel electrophoresis experiments were performed using a method similar to those previously described (Pinkas D M, et al., PLoS Biol, 2007, 5(12), 2788-2796.) (Iversen R, et al., Proc Natl. Acad. Sci., 2014, 111(43), 17146-17151). Briefly, TG2 (2.5 uM) was incubated for 30 min at room temperature in preincubation buffer (75 mM imidazole, 0.5 mM EDTA, 5 mM DTT [pH 7.2], 10% DMSO) with or without 1 mM GTPNa2 or 1 mM LDN-27219 before adding Native Sample Buffer for Protein Gels (Bio-Rad) or in preincubation buffer with 0.2 mM Z-DON 30 min prior addition of 5 mM of CaCl2 for 20 min. Native buffer was added (dilution 1:2), and 1.5 ug of protein was loaded onto a 4-20% Criterion™ TGX Stain-Free™ gel (Bio-Rad) using Tris-glycine as the running buffer. For 75 min, 125 V was applied at 4° C. The bands were visualized using stain-free technology by exposing the gels to UV light and capturing the image using a PXi 4 Touch image analysis system (Syngene). Band intensity analysis was carried out using GeneTools 4 software (Syngene).

[4] = test system: small mesenteric arteries; assay: Direct relaxation of U46619 pre-contracted small mesenteric arteries, concentration-response curves; parameters: species or system Male Wistar rats; conditions: U46619 4·10^−7 mol/L; LDN-27219 10^−8-10^−5 mol/L; Z-DON 10^−8-3·10^−4 mol/L; endothelium intact
Protocol: as §1
The small mesenteric arteries were pre-contracted with the thromboxane analogue, U46619 (4·10^−7 mol/L) and concentration-response curves for TG2 specific inhibitors, LDN-27219 (10^−8-10^−5 mol/L) and Z-DON (10^−8-3·10^−4 mol/L) were constructed. To study the role of the endothelial pathways in LDN-27219 relaxation, concentration-response curves were constructed for it in arteries whose endothelium had been removed mechanically by rubbing the lumen repeatedly with a human scalp hair.

| Compound | ACh relaxation compared to the vehicle [1] | relative abundance of closed / open conformation of TG2 (purified human TG2) | also measured |
| --- | --- | --- | --- |
| C=CC(=O)NCCCC[C@H](NC(=O)OCc1ccccc1)C(=O)N1CCN(C(=O)c2cc3ccc(O)cc3oc2=O)CC1 [VA-5, (S)-Benzyl (6-acrylamido-1-(4-(7-hydroxy-2-oxo-2H-chromene-3-carbonyl)piperazin-1-yl)-1-oxohexan-2-yl)carbamate, reference compound] | slight inhibition of ACh relaxation |  | potassium currents compared to control conditions [2]: significantly smaller potassium currents; mean blood pressure (MAP) (Male Wistar rats): did not produce any change in the mean blood pressure |
| Boc-DON-Gln-Ile-Val-OMe [reference compound] | no significant effect |  |  |
| NCCSSCCN [cystamine] |  |  | effects on endothelial pathways [3]: lacked effects on endothelial pathways |
| Z-DON-Val-Pro-Leu-OMe [reference compound] | slight inhibition of ACh relaxation | force its open conformation | relaxation of U46619 pre-contracted arteries [4]: failed to induce any vasodilation |
| Nc1nc2c(ncn2[C@@H]2O[C@H](COP(=O)([O-])OP(=O)([O-])OP(=O)([O-])[O-])[C@@H](O)[C@H]2O)c(=O)[nH]1.[Na+].[Na+].[Na+].[Na+] [GTP, guanosine 5′-triphosphate sodium salt] |  | completely force TG2 to its closed conformation |  |
